“Also recorded” adds a separate entry of the source.
Columns and labels:
Type in all cases: cell-based, human
[1] = system: PANC-1 cells; assay: Transwell (Boyden chamber) migration assay, PANC-1; settings: PANC-1, Boyden chamber, increasing doses, 4 h
[2] = system: MIAPaCa-2, PANC-1 and AsPC-1 cells; assay: Glucose uptake measurement (labelled 2-DG) in PDAC cell lines; settings: all three cell lines; relative to DMSO control
From the text: (§1) Measurement of 2-deoxy-D-glucose uptake shown on the y-axis relative to control by PDAC cell lines (MIAPaCa2, left; PANC-1, middle; AsPC1, right) treated with DMSO (C), pimozide (P) or haloperidol (H) (FIG. 10A). Abundance of free cholesterol, as measured by staining with filipin, after treatment with haloperidol (H) or pimozide (P) in PDAC cell lines (MIAPaCa2, left; PANC-1, middle; AsPC1, right) (FIG. 10B top). Representative micrographs of filipin-labelled cholesterol. PDAC (MIAPaCa2, top; PANC-1, middle; AsPC1, bottom) cells were seeded for 24 hours and treated with 10 μM haloperidol (H) or pimozide (P) or DMSO for 18 hours (FIG. 10B bottom). Red-fluorescence represents propidium iodide (PI)-stained nuclei and blue-fluorescence represents filipin-stained cholesterol. mRNA levels of genes relative to R-actin shown on the y-axis involved in cholesterol biosynthesis (from left to right: SREBP1, SREBP2, INSIG1, HMGCR, LDLR) measured by qRT-PCR 18 hours post-treatment with DMSO (C), haloperidol (H) or pimozide (P) in three PDAC cell lines (MIAPaCa2, top; PANC-1, middle; AsPC1, bottom) (FIG. 10C).
The induction effect of pimozide or haloperidol on labeled 2-DG uptake in cancer cells were determined from measurement of the fluorescence intensity of cell lysates. […]

[3] = system: SREBP1, SREBP2, INSIG1, HMGCR, LDLR mRNA; assay: qRT-PCR of cholesterol biosynthesis genes in PDAC cell lines; settings: qRT-PCR 18 hours post-treatment; relative to actin
From the text: as §1
For mice xenograft tissue samples and cultured cells, the miRNeasy kit (Qiagen, Valencia, Calif.) was used to extract total RNA. […] Quantification values were calculated according to a standard curve method created from a dilution series. […]

[4] = system: MIAPaCa-2 cells; assay: Transwell (Boyden chamber) migration assay, MIAPaCa-2; settings: MIAPaCa-2, Boyden chamber, increasing doses, 4 h
Protocol: MIAPaCa-2 cells were platted on transwells and exposed to increasing doses of Pimozide for 4 h (FIG. 7A). Migrated cells were measured and normalized to their controls. Values are the mean+/−SD of four replicate.
This assay for confirmation of cell migration was performed using 96-well Costar Transwell chambers with 8.0 μm pore polycarbonate membranes (Corning Inc., Corning, N.Y.). Cell culture inserts transwells were placed in wells of 96 well plate. The bottom chambers were filled with 120 μl of cell culture medium containing 10% FBS. Cells suspended in 70 μl serum free medium with DMSO as negative control or drugs were added to the upper part of each chamber followed by incubation at 37° C. with 5% CO2. After 4 h the medium was aspirated from the top of chambers and the bottom side of chambers washed with PBS. Those that have penetrated to the bottom side of the membrane were detached with 0.25% tryspin/EDTA during 3 min (37° C.) followed by inactivation of trypsine with soybean (Sigma Aldrich). […] Six replicates were performed for each treatment condition to predict the responder outcome variable and the luminescence signal which is corresponding to the number of live suspended cells was measured. Graph was plotted according to the readings obtained. […]

[5] = system: PANC-1 cells; assay: Wound healing (scratching) assay for cell migration; settings: PANC-1, increasing concentrations, 10 h
Protocol: PANC-1 cells were plated in the chamber were already attached in 12 well plate and allowed to grow for 24 h. Then, a wound was made in the confluent monolayer by removing the chamber. Cells were exposed to increasing concentration of Pimozide (FIG. 6A) or L741 (FIG. 6B) and vehicle for 10 h. Wound gap closure was measured for each drug concentration by comparing the gap at time 0 h to the one at the time 10 h when the gap closed in negative control and normalized to untreated condition.
PANC-1 cells were seeded into the 35 mm-dish culture-silicon Insert frames from Ibidi where already attached to the 6 well culture plate. When 96-98% confluency was achieved, the insert frames were removed using sterile forceps to reach cell free gap. To create a reference point for subsequent measurements, three different part of the gap was marked on the underside of the plastic. Floating cells and cell debris were washed using PBS, relative culture medium was added to each wells and migration distance was photographed using a Zeiss Axiovert 24 light microscope at zero time in the marked areas. Afterward, the wells were treated by addition of DMSO as control and different increasing concentration of Pim and L741. Plates were then placed into the incubator and the cells were allowed to migrate until the time when the gap for the […] closed (t time). Images were taken from the marked areas again. This assay was performed employing various concentrations of drugs at which maximum 5% viability inhibition was observed after 10 h treatment.

O=c1[nH]c2ccccc2n1C1CCN(CCCC(c2ccc(F)cc2)c2ccc(F)cc2)CC1 [pimozide]
migrated cells [1]: significantly reduced migrated cells; also recorded: Dose dependent inhibitory effect
glucose uptake (intracellular labelled 2-deoxy-D-glucose) [2]: elevated uptake of glucose; also recorded: enhanced glucose and cholesterol uptake
expression of genes involved in lipogenesis / cholesterol biosynthesis [3]: inducing expression of genes involved in lipogenesis
migrated cells [4]: significantly reduced migrated cells; also recorded: dose dependent inhibitory effect
tumor cell migration (wound gap closure) [5]: tumor cell migration was affected
tumor cell migration (wound gap closure) ([5]; listed as Pimozide): dose dependent inhibitory effect

From patent US10874685B2, “Pancreatic cancer therapy and diagnosis” (Deutsches Krebsforschungszentrum Stiftung des Öffentlichen …, priority 2014, dated 2020)
